Measured values: PubChem BioAssay AID1159559 (GlaxoSmithKline (GSK), 2015)
The source made the active and inactive calls.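 The calls were made as follows: active = compounds whose IC50 against parasite growth in infected mouse cells is below 50000 nM; inactive = the rest.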

tested on: T. cruzi Tulahuen in NIH-3T3, beta-gal fluorescence, 4 d; assay: T. cruzi intracellular growth inhibition, cell-based (AID 1159559)

With CCCC(=O)N(Cc1ccccn1)c1nc2ccccc2s1 as the molecule, how does the IC50 read?
Its IC50 is 0.13 µM.

For O=C(Nc1nc2ccccc2[nH]1)c1c(O)c2cccc3c2n(c1=O)CC3, which IC50 is on record?
The IC50 was 20 µM.

For O=C(Nc1cccc(Cl)c1)Nc1ccc([N+](=O)[O-])cc1Cl, which IC50 is on record?
The IC50 was 1.3 µM.

How did the IC50 turn out when CCN(CC)c1nc(N(C)C)nc2c1CN(Cc1ccccc1)CC2 was run?
Its IC50 is 6.3 µM.

With O=C1OCc2ccc(Nc3nccc(-c4cnn5ncccc45)n3)cc21 as the molecule, how does the IC50 read?
The IC50 was 0.025 µM.

For CCC(=O)Nc1ccc(-c2nc3ccc(Cl)cc3[nH]2)cc1, which IC50 is on record?
Its IC50 is 2 µM.

Which IC50 does the source give for Cn1ccnc1CN1CCc2[nH]cnc2C1c1ccccc1OCc1ccccc1 (configuration not stated) here?
The IC50 was 40 µM.

CC(C)(C)c1csc(NC(=O)c2ccc([N+](=O)[O-])s2)n1 was tested. Which IC50 did it give?
The IC50 was 0.16 µM.

For CS(=O)(=O)NC1CCC(Nc2ncc(Br)c(Nc3ccccc3C(N)=O)n2)CC1 (configuration not stated), which IC50 is on record?
The IC50 was 7.9 µM.

Which IC50 does the source give for COc1ccc(Cl)cc1CC(=O)Nc1n[nH]c(-c2ccccn2)n1 here?
The IC50 was 10 µM.

With CCOC(=O)c1noc(N)c1-c1ccccc1 as the molecule, how does the IC50 read?
The IC50 was > 50 µM (inactive).

Which IC50 does the source give for NC(=O)c1cc(F)ccc1Nc1nc(NC2CCC(O)CC2)ncc1Cl (configuration not stated) here?
Its IC50 is 4 µM.

Which IC50 does the source give for O=C1CN(C2CCCc3c(OCc4ccncc4)cccc32)C(=O)N1C1CCCCC1 (configuration not stated) here?
Its IC50 is 0.25 µM.

CCn1c(NC(=O)Cc2ccc(F)cc2)nc2ccccc21 was tested. Which IC50 did it give?
The IC50 was 5 µM.

How did the IC50 turn out when COc1ccc2ncc(F)c(CCN3CC[C@@H](NC(=O)c4cc5c(s4)CCC5)[C@@H](O)C3)c2n1 was run?
Its IC50 is 0.16 µM.

How did the IC50 turn out when Cn1nccc1NC(=O)Cn1ccc(-c2ccncc2)n1 was run?
Its IC50 is > 50 µM (inactive).

How did the IC50 turn out when N#Cc1cccc(CNc2ccc(-c3cnn(CC4CC4)c(=O)c3C#N)cc2)c1 was run?
The IC50 was 5 µM.

With CC(CNS(=O)(=O)c1ccc(OC(F)F)cc1)c1ccc(NC(=O)c2ccncc2)cc1 (configuration not stated) as the molecule, how does the IC50 read?
The IC50 was 0.2 µM.

Which IC50 does the source give for COc1cc(OC)cc(C(NS(=O)(=O)c2ccc(Cl)c(C(F)(F)F)c2)c2nccn2C)c1 (configuration not stated) here?
The IC50 was 4 µM.

With O=C(NCC(c1cccnc1)N1CCc2ccccc2C1)C(=O)Nc1cccc(Cl)c1 (configuration not stated) as the molecule, how does the IC50 read?
The IC50 was 0.2 µM.

Which IC50 does the source give for CNc1cc(Cn2c(C(=O)c3cc(C)cc(Cl)c3)c(C(C)C)c(=O)[nH]c2=O)ccn1 here?
Its IC50 is 0.04 µM.

OC[C@@H](Nc1nccc(-c2c(-c3ccc(F)cc3)ncn2C2CCNCC2)n1)c1ccccc1 was tested. Which IC50 did it give?
The IC50 was 32 µM.

O=C(Nc1nc(-c2ccccn2)cs1)c1ccc(S(=O)(=O)N2CCCCC2)cc1 was tested. Which IC50 did it give?
Its IC50 is 0.63 µM.

For Cc1ccccc1NS(=O)(=O)c1ccc2[nH]cc(C(=O)NC3CCCC(C)C3C)c(=O)c2c1 (configuration not stated), which IC50 is on record?
The IC50 was 5 µM.

O=C(CCCNC(=O)c1ccc(Cl)cc1)Nc1nc(-c2ccccn2)cs1 was tested. Which IC50 did it give?
Its IC50 is 6.3 µM.

Which IC50 does the source give for CN(Cc1nc2ccccc2s1)C(=O)C=Cc1cc2ccccc2o1 here?
The IC50 was 0.63 µM.

For O=C(COc1ccccc1)Nc1ccccc1C(=O)Nc1nccs1, which IC50 is on record?
The IC50 was > 50 µM (inactive).

For NC(=O)c1ncc(N[C@@H]2CCCNC2)nc1Nc1cccc(Cl)c1, which IC50 is on record?
The IC50 was 0.32 µM.

With O=C(O)[C@H]1C[C@@H]1c1ccc(-c2ccc(CN(CCc3ccccn3)C(=O)C3CCC3)cc2)cc1 as the molecule, how does the IC50 read?
Its IC50 is > 50 µM (inactive).

Which IC50 does the source give for C[C@@H](Oc1cc(-n2cnc3ccc(O[C@H]4CCNC4)cc32)sc1C(N)=O)c1ccccc1Cl here?
The IC50 was 3.2 µM.

O=C(NCC(c1cccs1)N1CCOCC1)c1ccc([N+](=O)[O-])o1 (configuration not stated) was tested. Which IC50 did it give?
The IC50 was 3.2 µM.

How did the IC50 turn out when Cc1cccc(NS(=O)(=O)c2cnc3sc(C)cn3c2=O)c1 was run?
Its IC50 is 1.3 µM.

Which IC50 does the source give for COc1ccc(Nc2nc(NC3CCC(O)CC3)ncc2Br)c(C(N)=O)c1 (configuration not stated) here?
The IC50 was 4 µM.

With O=C(c1ccc(Cl)cc1)c1ccc(OC(=O)N2CCOCC2)cc1 as the molecule, how does the IC50 read?
The IC50 was 13 µM.

For CCc1cc(C(=O)Nc2nccn2-c2ccccc2)cs1, which IC50 is on record?
Its IC50 is 3.2 µM.

For O=C1CN(Cc2ccco2)C2CS(=O)(=O)CC2N1c1ccc(Cl)cc1 (configuration not stated), which IC50 is on record?
The IC50 was > 50 µM (inactive).

Which IC50 does the source give for CCc1cccc(CC)c1-n1c(SCC(=O)N2CC(=O)Nc3ccccc32)nnc1-c1cccnc1 here?
Its IC50 is 25 µM.

Which IC50 does the source give for CC(C(=O)Nc1ccccc1F)N(C)CC(=O)Nc1cccc2ccccc12 (configuration not stated) here?
Its IC50 is 0.4 µM.

With CN(Cc1nnnn1C1CCN(Cc2ccc(-n3ccnc3)cc2)CC1)c1ccc(F)cc1F as the molecule, how does the IC50 read?
The IC50 was 0.32 µM.

With CC(c1cc(Cl)cc(Cl)c1)N(C)c1ncc2c(N)nc(N)nc2n1 (configuration not stated) as the molecule, how does the IC50 read?
The IC50 was 0.063 µM.

How did the IC50 turn out when COc1ccc(-c2csc(NC(=O)c3ccc([N+](=O)[O-])s3)n2)cc1OC was run?
Its IC50 is 0.1 µM.

O=S(=O)(c1ccccc1C(F)(F)F)N1CCN(Cc2ccc(-n3ccnc3)cc2)CC1 was tested. Which IC50 did it give?
Its IC50 is 0.25 µM.

How did the IC50 turn out when O=C(Nc1ccc(-c2nc3ccccc3c(=O)[nH]2)cc1)c1cccs1 was run?
The IC50 was 3.2 µM.

How did the IC50 turn out when O=C(Cc1ccc2c(c1)CCC2)Nc1n[nH]c(-c2ccccn2)n1 was run?
The IC50 was 10 µM.

With CC(C)c1cc(Nc2cc(Cc3ccccc3)nc(NC3CCC(O)CC3)n2)n[nH]1 (configuration not stated) as the molecule, how does the IC50 read?
The IC50 was 0.079 µM.

Which IC50 does the source give for CC(C)(C)CC(=O)NCc1noc(COc2ccccc2)n1 here?
The IC50 was 2.5 µM.

How did the IC50 turn out when O=C(NCCc1csc(-c2cccc(F)c2)n1)c1ccco1 was run?
Its IC50 is 1.6 µM.

For CN(C)S(=O)(=O)c1cccc(CSc2nnc(-c3ccc4c(c3)OCO4)o2)c1, which IC50 is on record?
Its IC50 is 0.5 µM.

Which IC50 does the source give for O=S(=O)(c1cccc(CSc2nnc(-c3ccc4c(c3)OCO4)o2)c1)N1CCOCC1 here?
The IC50 was 0.2 µM.

How did the IC50 turn out when NCc1ccc2c(Cl)cc(Cl)c(O)c2n1 was run?
The IC50 was 2.5 µM.

How did the IC50 turn out when Fc1ccc(OC2CC(NCc3cccc4cn[nH]c34)C2)cc1C(F)(F)F (configuration not stated) was run?
The IC50 was 0.79 µM.

CCC(CC)C(=O)Nc1ccc(-c2nnc(-c3ccc(OC)cc3)o2)cc1 was tested. Which IC50 did it give?
The IC50 was 5 µM.

Which IC50 does the source give for COc1ccc(C)cc1-c1csc(NC(=O)C(C)n2ccnc2)n1 (configuration not stated) here?
The IC50 was 0.063 µM.

CN1CCC(N(C)c2nccc(N3CCN(C(=O)c4cccc(-c5cccnc5)c4)CC3)n2)CC1 was tested. Which IC50 did it give?
Its IC50 is 0.32 µM.

How did the IC50 turn out when COc1ccccc1C(=O)Nc1nnc(-c2ccc3c(c2)OCO3)s1 was run?
Its IC50 is 2.5 µM.

Which IC50 does the source give for Cc1ccc(Nc2nc(-c3ccccn3)cc(N3CCCC(O)C3)n2)cc1 (configuration not stated) here?
The IC50 was 0.5 µM.

With O=C(Nc1cccc(S(=O)(=O)Nc2ccc(Br)cc2)c1)c1ccc([N+](=O)[O-])s1 as the molecule, how does the IC50 read?
The IC50 was 0.1 µM.

With CC(C)(C)C(O)(CCc1ccc(Cl)cc1)Cn1cncn1 (configuration not stated) as the molecule, how does the IC50 read?
Its IC50 is 0.13 µM.

COc1ccc([N+](=O)[O-])cc1NC(=O)c1cc(Cl)ccc1O was tested. Which IC50 did it give?
Its IC50 is 32 µM.

With CC(C)(C)C(Cn1ccnc1)NC(=O)c1ccc2nc(C3CC3)oc2c1 (configuration not stated) as the molecule, how does the IC50 read?
Its IC50 is 0.1 µM.

With Cc1cccc(NS(=O)(=O)c2ccc3c(c2)C(=O)c2cc(S(=O)(=O)Nc4cccc(C)c4C)ccc2-3)c1C as the molecule, how does the IC50 read?
The IC50 was 0.4 µM.

For CCC(=O)N1N=C(c2ccc3c(c2)CCCC3)Sc2c1ncn2C(=O)CC, which IC50 is on record?
The IC50 was 6.3 µM.

With NC(=O)c1cc(F)ccc1Nc1nc(NC2CCC(O)CC2)ncc1Br (configuration not stated) as the molecule, how does the IC50 read?
The IC50 was 2.5 µM.

For NC(=O)c1ccccc1Nc1nc(NC2CCCCC2)nc2[nH]ccc12, which IC50 is on record?
Its IC50 is 1 µM.

How did the IC50 turn out when CN1C(=O)c2ccccc2Sc2ccc(NC(=O)NCc3ccco3)cc21 was run?
Its IC50 is 10 µM.

O=C1COC(c2ccccc2)(c2ccccc2)CN1C1CCN(Cc2ccc(-n3ccnc3)cc2)CC1 was tested. Which IC50 did it give?
The IC50 was 1.6 µM.

With Cc1cc(N(C)C)nc(Nc2ccccc2C)n1 as the molecule, how does the IC50 read?
Its IC50 is 1.6 µM.

For COc1ccccc1C1CC(c2ccc(NS(C)(=O)=O)cc2)=NN1C(=O)c1cccs1 (configuration not stated), which IC50 is on record?
The IC50 was 25 µM.

How did the IC50 turn out when COc1cc(Cl)c(C)cc1NC(=O)c1ccc([N+](=O)[O-])s1 was run?
The IC50 was 0.63 µM.

Which IC50 does the source give for Cc1ccc2c(c1)SC(C(=O)Nc1n[nH]c(-c3ccccn3)n1)C2 (configuration not stated) here?
The IC50 was 5 µM.

Which IC50 does the source give for Cc1nc2c(-c3nc(-c4ccc(N)cc4)n[nH]3)cccn2c1C here?
The IC50 was 6.3 µM.

Which IC50 does the source give for COc1cccc(C(=O)[C@H]2C[C@@H]2CN(Cc2cccnc2)Cc2cccnc2)c1 here?
Its IC50 is 0.1 µM.

How did the IC50 turn out when O=C(NC1CCN(C2Cc3ccc(NS(=O)(=O)c4cc(F)cc(F)c4)cc3C2)CC1)C1CC1 (configuration not stated) was run?
The IC50 was > 50 µM (inactive).

Which IC50 does the source give for O=C(CN(c1cccc(C(F)(F)F)c1)S(=O)(=O)c1ccc(Cl)cc1)NCc1ccc(F)c(F)c1 here?
Its IC50 is 0.79 µM.

Which IC50 does the source give for CCc1cccc(-n2nc(OCC(=O)NC3CCCC3)c3cccnc32)c1 here?
The IC50 was > 50 µM (inactive).

How did the IC50 turn out when Cc1cn[nH]c1C1CCCN(Cc2nc3ccccc3n2C)C1 (configuration not stated) was run?
Its IC50 is 3.2 µM.

With CCCc1nc2nc(N)nc(N)c2cc1CC as the molecule, how does the IC50 read?
The IC50 was 0.32 µM.
